Experimental findings from patent US20070232577A1, “Synthetic pentacyclic triterpenoids and derivatives of betulinic acid and betulin” (Advanced Life Sciences, Inc., priority 2006, published 2007) are described below.

The subject of one series is SK-MEL-2 cells. In words: Caspase activation assay, SK-MEL-2. Type of series: cell-based. As to conditions: SK-MEL-2. The protocol: All treatments were performed in duplicate. […] Cells were incubated at 37° C. for 8 h. Caspase assay reagent (per 96-well plate) was prepared according to manufacturer's instructions (Homogeneous Caspases Assay, fluorometric, Roche) by combining 6.3 mL Incubation Buffer with 0.7 mL of Substrate Stock Solution. Caspase assay reagent (70 μL) was added to each well; the plate was gently shaken by hand for 15-20 seconds and incubated at 37° C. for 4 h.
Fluorescent emission was measured at 535 nm on a plate reader using the “homogeneous caspase” program (excitation Wavelength=490 nm, emission wavelength=535 nm). Duplicate wells for each treatment were averaged following background (no cells) subtraction (emission 535 nm value from all experimental emission 535 nm values) for each drug concentration.
DMSO treatment represented baseline caspase activation in the absence of drug. The percent changes in caspase activity were plotted on the y-axis for each drug treatment.
Caspase activation assays were conducted to further characterize the mode of cell death. A treatment time and dose at which maximum caspase activation was observed prior to massive cell destruction would be indicative of apoptosis induction. SK-MEL-2 cells were treated with 5, 15, and 50 μM of the compound for 2, 4, 6, 8, 16, and 24 h in the absence of FBS (Fetal Bovine Serum).

The test system of a further series is A-375 (melanoma). In words: MTS cell viability assay, A-375. It counts as cell-based. As to conditions: Homo sapiens, 72 h. The procedure:
(§1) All treatments were performed in triplicate. […] Cells were incubated at 37° C. for 72 h.
On the technique in general: Tetrazolium assays rely on reduction of a dye to a coloured formazan, in cell work by metabolically active cells.

In another series the test system is LN-229 (glioblastoma). In words: MTS cell viability assay, LN-229. It counts as cell-based. As to conditions: Homo sapiens, 72 h. The protocol: as §1
Series [1] relates to OVCAR-3 (ovarian carcinoma). As to the kind of experiment: MTS cell viability assay, OVCAR-3. Type of series: cell-based. The note with it: Homo sapiens, 72 h. The protocol: as §1
Another series concerns HT-29 (colon carcinoma). In words: MTS cell viability assay, HT-29. Type of series: cell-based. As to conditions: Homo sapiens, 72 h. The procedure: as §1
The next series has as its system MCF-7 (breast carcinoma). In words: MTS cell viability assay, MCF-7. Type of series: cell-based. As to conditions: Homo sapiens, MCF7, 72 h. The procedure:
as §1

For another series, the system named is Daoy (glioblastoma). In words: MTS cell viability assay, Daoy. The note with it: Homo sapiens, Daoy, 72 h, read-out: IC50 Daoy.
The test system of another series is SK-MEL-2 (melanoma). In words: MTS cell viability assay, SK-MEL-2. The note with it: Homo sapiens, SK-MEL-2, 72 h, read-out: IC50 SK-MEL-2.
For series [2], the system named is SK-MEL-2, A-375, Daoy, LN-229, OVCAR-3, HT-29, MCF-7 cell lines. Type of series: cell-based. The procedure:
as §1

Values after ≈ are worked out from the molar mass of the structure shown.

Description for Daoy (glioblastoma): Cells were plated, the evening before treatment, for each treatment on 96-well plates (1×10^4 cells/well) in 100 μL volume per well. Drug solutions were prepared by diluting each test compound in DSMO (10 mM) with the appropriate cell growth media for each individual cell line, or in “Universal Media” if several cell lines were to be assayed in parallel, immediately prior to cell treatment. Universal Media consisted of 5 mL sodium pyruvate (100×liquid stock, CellGro), 5 mL glucose (100×, 45% liquid stock, CellGro), 5 mL Penicillin/Streptomycin (100×liquid stock, CellGro), 10 mL sodium bicarbonate (50×liquid stock, CellGro), 25 mL Fetal Calf Serum, 1.25 mL insulin (4 mg/mL, Gibco) and 449 mL RPMI media with 2 mM glutamine for a total volume of 500 mL. Cells were treated by aspirating media from each well and adding 80 μL of each drug solution to the attached cells. All treatments were performed in triplicate. Growth media (80 μL) were added to 3 blank wells (no cells) to measure background from the growth media Growth media alone (no DMSO or test compond) was added to 2 wells containing cells to measure the baseline MTS activity and vehicle (DMSO) control solutions were also included to monitor basal toxicity from DMSO. Cells were incubated at 37° C. for 72 h. MTS reagent (per 96-well plate) were prepared by combining 2 mL of MTS working solution (Cell Titer AQueous Non-Radioactive Cell Proliferation Assay, Promega, cat#G1112), 100 μL of 0.92 mg/mL phenazine methosulfate/Dulbecco's PBS and 2.1 mL growth media. MTS reagent (40 μL) were added to each well and incubated at 37° C. for 1.5 to 4 h. Plates were gently shaken by hand until solution in each well appeared homogenous. Absorbances at 490 nm were measured on a plate reader at multiple time points following the addition of MTS reagent for each plate. Triplicate absorbance (490 nm) measurements were averaged following background (no cell) subtraction for each drug concentration. Percent Cell Viability was calculated for each drug concentration using the following equation: {[Absorbances(drug treated)]/[Absorbances(DMSO treated)]}×100%
Percent viability (y-axis) was plotted against drug concentration (x-axis) and the resulting graph was used to determine the 50% inhibitory concentration (IC50) for each drug.

With `C=C(C)[C@@H]1CC[C@]2(CO)CC[C@]3(C)[C@H](CC[C@@H]4[C@@]5(C)CC6=C(ON(O)C6)C(C)(C)[C@@H]5CC[C@]43C)[C@@H]12` [Compound 33, (1R,3aS,5aR,5bR,7aR,12aR,12bR,14aR,14bR)-3a-(hydroxymethyl)-1-isopropenyl-5a,5b,8,8,12a-pentamethyl-1,2,3,3a,4,5,5a,5b,6,7,7a,8,11,12,12a,12b,13,14, 14a,14b-icosahydro-10H-cyclopenta[7,8]chryseno[3,2-d]isoxazol-10-ol], the “caspase activation in SK-MEL-2 (in words)” value in the series on SK-MEL-2 cells is given as “induced caspase activation”.
Consider `C=C(C)[C@@H]1CC[C@]2(COC(=O)CBr)CC[C@]3(C)[C@H](CC[C@@H]4[C@@]5(C)C=C(C#N)C(=O)C(C)(C)[C@@H]5CC[C@]43C)[C@@H]12` [Compound 39, ((1R,3aS,5aR,5bR,7aR,11aR,11bR,13aR,13bR)-10-cyano-5a,5b,8,8,11a-pentamethyl-9-oxo-1-(prop-1-en-2-yl)-2,3,3a,4,5,5a,5b,6,7,7a,8,9,11a,11b,12,13,13a,13b-octadecahydro-1H-cyclopenta[a]chrysen-3a-yl)methyl 2-bromoacetate], for which the IC50 (commonly the concentration at which inhibition is half-maximal) in the series with A-375 (melanoma) was 4 µg/mL (≈ 6.84 µM); in the series with LN-229 (glioblastoma), 7 µg/mL (≈ 12 µM); in [1], 7 µg/mL (≈ 12 µM); with HT-29 (colon carcinoma), 6 µg/mL (≈ 10.3 µM); with MCF-7 (breast carcinoma), 13 µg/mL (≈ 22.2 µM); in the series on Daoy (glioblastoma) it was less than 2 µg/mL. Further, the IC50 with SK-MEL-2 (melanoma) is 20 µg/mL (≈ 34.2 µM). The “caspase activation in SK-MEL-2 (in words)” value in the series on SK-MEL-2 cells is “induced caspase activation”.
For `C=C(C)[C@@H]1CC[C@]2(C(=O)O)CC[C@]3(C)[C@H](CC[C@@H]4[C@@]5(C)CC[C@H](NCCc6ccc(O)cc6)C(C)(C)[C@@H]5CC[C@]43C)[C@@H]12` [Compound 82, (1R,3aS,5aR,5bR,7aR,9S,11aR,11bR,13aR,13bR)-9-(4-hydroxyphenethylamino)-5a,5b,8,8,11a-pentamethyl-1-(prop-1-en-2-yl)icosahydro-1H-cyclopenta[a]chrysene-3a-carboxylic acid], the IC50 in the series on A-375 (melanoma) turned out to be 5 µg/mL (≈ 8.68 µM); with LN-229 (glioblastoma) it was 5 µg/mL (≈ 8.68 µM); in series [1], 6 µg/mL (≈ 10.4 µM); in the series on HT-29 (colon carcinoma), 4 µg/mL (≈ 6.95 µM); with MCF-7 (breast carcinoma), 6 µg/mL (≈ 10.4 µM); in the series with Daoy (glioblastoma), 5 µg/mL (≈ 8.68 µM). The IC50 with SK-MEL-2 (melanoma) worked out at 5 µg/mL (≈ 8.68 µM). In addition, in [2], the “cytotoxic potency across the cell line panel (in words)” value was “potent across the entire cell line panel”.
For the compound `CC(C)[C@@H]1CC[C@]2(C(=O)O)CC[C@]3(C)[C@H](CC[C@@H]4[C@@]5(C)CC[C@H](N)C(C)(C)[C@@H]5CC[C@]43C)[C@@H]12` [Compound 86, (1S,3aS,5aR,5bR,7aR,9S,11aR,11bR,13aR,13bR)-9-amino-1-isopropyl-5a,5b,8,8,11a-pentamethylicosahydro-1H-cyclopenta[a]chrysene-3a-carboxylic acid], the IC50 is 5 µg/mL (≈ 10.9 µM) with A-375 (melanoma); 5 µg/mL (≈ 10.9 µM) with LN-229 (glioblastoma); 6 µg/mL (≈ 13.1 µM) in series [1]; 5 µg/mL (≈ 10.9 µM) in the series on HT-29 (colon carcinoma); 6 µg/mL (≈ 13.1 µM) in the series with MCF-7 (breast carcinoma); 6 µg/mL (≈ 13.1 µM) in the series with Daoy (glioblastoma). Also, the IC50 in the series with SK-MEL-2 (melanoma) amounted to 6 µg/mL (≈ 13.1 µM). Besides, the “cytotoxic potency across the cell line panel (in words)” value in series [2] is reported as “potent across the entire cell line panel”.
Take `CC(C)[C@@H]1CC[C@]2(C(=O)O)CC[C@]3(C)[C@H](CC[C@@H]4[C@@]5(C)CCC(=O)C(C)(C)[C@@H]5CC[C@]43C)[C@@H]12` [Compound 87, (1S,3aS,5aR,5bR,7aR,11aR,11bR,13aR,13bR)-1-isopropyl-5a,5b,8,8,11a-pentamethyl-9-oxoicosahydro-1H-cyclopenta[a]chrysene-3a-carboxylic acid]: the IC50 came to 22 µg/mL (≈ 48.2 µM) in the series on A-375 (melanoma); 28 µg/mL (≈ 61.3 µM) in the series on LN-229 (glioblastoma); 22 µg/mL (≈ 48.2 µM) in series [1]; 35 µg/mL (≈ 76.6 µM) with HT-29 (colon carcinoma); 38 µg/mL (≈ 83.2 µM) in the series on MCF-7 (breast carcinoma); 5 µg/mL (≈ 10.9 µM) in the series with Daoy (glioblastoma). For the same compound, the IC50 in the series with SK-MEL-2 (melanoma) came out at 16 µg/mL (≈ 35 µM).
